The values below come from patent US20120142771A1, “BIPHENYLACETAMIDE DERIVATIVE” (Dainippon Sumitomo Pharma Co., Ltd., priority 2008, published 2012).

Test [1] deals with maximum electroshock seizure (MES) model. Briefly: Maximum electroshock seizure (MES) model test. Type of test: in vivo, mice. Particulars: for responders at 50 mg/kg / responders at 100 mg/kg: Mus musculus, po, 1 h, read-out: MES (positive number/tested number) (converted); for responders at 50 mg/kg / responders at 100 mg/kg / MES (positive number/tested number): Slc: ddY male mice, 3 per group, electrical stimulation 1 hour after administration, inhibition of hind limb extension. The essentials: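 Tonic hind-limb extension was elicited by corneal electroshock (60 Hz, 25 mA, 0.2 s) 1 h after oral dosing. Test compounds were given at 50 or 100 mg/kg to groups of 3 male Slc: ddY mice (20-30 g), vehicle controls receiving 0.5% tragacanth or 0.5% methylcellulose solution.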

The test system of test [2] is subcutaneously pentetrazol-injected model (scPTZ). Briefly: Subcutaneously pentetrazol-injected model (scPTZ) test. Type of test: in vivo, mice. Particulars: pentetrazol 85 mg/kg s.c. after 1 hour; for responders at 100 mg/kg / responders at 50 mg/kg: Mus musculus, po, 1 h, read-out: scPTZ (positive number/tested number) (converted); for responders at 100 mg/kg / responders at 50 mg/kg / scPTZ (positive number/tested number): Slc: ddY male mice, 3 per group, observed 30 minutes for clonic convulsion. The essentials:
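Pentetrazol (85 mg/kg, s.c.) was injected one hour after oral test compound at 50 or 100 mg/kg in groups of three male Slc:ddY mice weighing 20-30 g; vehicle controls got 0.5% tragacanth or 0.5% methylcellulose.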

Turning to `NC(=O)C(F)c1ccccc1-c1ccccc1F` (stereo not drawn) [Example 164, 2-fluoro-2-(2′-fluorobiphenyl-2-yl)acetamide], the responders at 50 mg/kg in test [1] (50 mg/kg oral) is 100%. The values for the responders at 100 mg/kg in test [1] (100 mg/kg oral) and in test [2] (100 mg/kg oral) were 100% and 33.3%, respectively.
For the molecule `NC(=O)C(F)(F)c1ccccc1-c1ccccc1` [Example 174, 2-(biphenyl-2-yl)-2,2-difluoroacetamide], the responders at 50 mg/kg in test [1] (50 mg/kg oral) was 100%; in test [2] (50 mg/kg oral) it was 33.3%. The responders at 100 mg/kg is 100% in test [1] (100 mg/kg oral) and 66.7% in test [2] (100 mg/kg oral).
`CNC(=O)Cc1ccccc1-c1cccc(C(F)(F)F)c1F` [Example 98]: the responders at 50 mg/kg in test [1] (50 mg/kg oral) is 0%. Further, the responders at 100 mg/kg is 66.7% in test [1] (100 mg/kg oral) and 0% in test [2] (100 mg/kg oral).
As for `NC(=O)Cc1ccccc1-c1cc(Cl)ccc1Cl` [Example 95, 2-(2′,5′-dichlorobiphenyl-2-yl)acetamide], the responders at 50 mg/kg was 33.3% in test [1] (50 mg/kg oral) and 0% in test [2] (50 mg/kg oral). Besides, the responders at 100 mg/kg in test [1] (100 mg/kg oral) is 66.7%; in test [2] (100 mg/kg oral), 100%.
Take `CNC(=O)Cc1ccccc1-c1cccc(F)c1` [Example 26, 2-(3′-fluorobiphenyl-2-yl)-N-methylacetamide]: the responders at 50 mg/kg in test [1] (50 mg/kg oral) was 100%. The responders at 100 mg/kg in test [1] (100 mg/kg oral) is 100%; in test [2] (100 mg/kg oral), 0%.
Turning to `CNC(=O)Cc1ccccc1-c1ccc(C(F)(F)F)cc1F` [Example 97], the responders at 50 mg/kg in test [1] (50 mg/kg oral) is 33.3%. The responders at 100 mg/kg was 66.7% in test [1] (100 mg/kg oral) and 33.3% in test [2] (100 mg/kg oral).
For `NC(=O)C(O)c1ccccc1-c1cc(F)ccc1F` (stereo not drawn) [Example 192], the results for the responders at 100 mg/kg in test [1] (100 mg/kg oral) and in test [2] (100 mg/kg oral) were 100% and 33.3%, respectively.
Take `CNC(=O)Cc1ccccc1-c1ccc(F)cc1` [Example 23, 2-(4′-fluorobiphenyl-2-yl)-N-methylacetamide]: the responders at 50 mg/kg in test [1] (50 mg/kg oral) is 100%. In addition, the responders at 100 mg/kg in test [1] (100 mg/kg oral) is 100%; in test [2] (100 mg/kg oral) it was 33.3%.
As to `NC(=O)Cc1ccccc1-c1cccc(OC(F)(F)F)c1` [Example 79, 2-[3′-(trifluoromethoxy)biphenyl-2-yl]acetamide], the responders at 50 mg/kg in test [1] (50 mg/kg oral) and in test [2] (50 mg/kg oral) was 33.3% in each case. The responders at 100 mg/kg in test [1] (100 mg/kg oral) and in test [2] (100 mg/kg oral) was 100% throughout.
As for `NC(=O)Cc1ccccc1-c1ccc(C(F)(F)F)cc1C(F)(F)F` [Example 74], the figures for the responders at 100 mg/kg in test [1] (100 mg/kg oral) and in test [2] (100 mg/kg oral) were 66.7% and 33.3%, respectively.
Turning to `CNC(=O)Cc1ccccc1-c1cccc(C)c1` [Example 31, N-methyl-2-(3′-methylbiphenyl-2-yl)-acetamide], the responders at 100 mg/kg in test [1] (100 mg/kg oral) is 0%; in test [2] (100 mg/kg oral), 66.7%. Also, the responders at 50 mg/kg in test [2] (50 mg/kg oral) was 33.3%.
As for `CN(C)C(=O)Cc1ccccc1-c1ccccc1F` [Example 30, 2-(2′-fluorobiphenyl-2-yl)-N,N-dimethylacetamide], the responders at 50 mg/kg in test [1] (50 mg/kg oral) was 0%; in test [2] (50 mg/kg oral) it was 33.3%. Moreover, the responders at 100 mg/kg in test [1] (100 mg/kg oral) was 100%; in test [2] (100 mg/kg oral), 66.7%.
Taken in the same sequence, the figures for `COC(C(=O)N(C)C)c1ccccc1-c1ccccc1F` (stereo not drawn) [Example 202, 2-(2′-fluorobiphenyl-2-yl)-2-methoxy-N,N-dimethylacetamide] were 33.3%, 0%, 66.7% and 100%.
Take `NC(=O)Cc1ccc([N+](=O)[O-])cc1-c1ccccc1` [Example 112]: the responders at 100 mg/kg in test [1] (100 mg/kg oral) was 33.3%; in test [2] (100 mg/kg oral), 66.7%. Further, in test [2] (50 mg/kg oral), the responders at 50 mg/kg was 33.3%.
Turning to `CNC(=O)Cc1ccccc1-c1cccc(OC(F)(F)F)c1` [Example 99, N-methyl-2-[3′-(trifluoromethoxy)biphenyl-2-yl]acetamide], the responders at 50 mg/kg in test [1] (50 mg/kg oral) was 66.7%. Also, the results for the responders at 100 mg/kg in test [1] (100 mg/kg oral) and in test [2] (100 mg/kg oral) were 100% and 33.3%, respectively.
On to `NC(=O)Cc1ccccc1-c1cc(C(F)(F)F)ccc1Cl` [Example 96], for which the responders at 100 mg/kg in test [1] (100 mg/kg oral) was 33.3%; in test [2] (100 mg/kg oral) it was 66.7%.
Consider `CS(=O)(=O)c1ccc(-c2ccccc2CC(N)=O)cc1` [Example 92], for which the “MES (positive number/tested number)” value in test [1] (100 mg/kg oral) is 0/3. Moreover, the “scPTZ (positive number/tested number)” value in test [2] (100 mg/kg oral) is 1/3.
Take `CNC(=O)Cc1ccc(Cl)cc1-c1ccccc1F` [Example 126, 2-(5-chloro-2′-fluorobiphenyl-2-yl)-N-methylacetamide]: the responders at 50 mg/kg is 0% in test [1] (50 mg/kg oral) and 66.7% in test [2] (50 mg/kg oral). For the same molecule, the responders at 100 mg/kg in test [1] (100 mg/kg oral) was 66.7%; in test [2] (100 mg/kg oral) it was 100%.
Consider `NC(=O)Cc1ccccc1-c1ccc(C(F)(F)F)cc1Cl` [Example 84, 2-[2′-chloro-4′-(trifluoromethyl)biphenyl-2-yl]acetamide], for which the responders at 50 mg/kg in test [1] (50 mg/kg oral) is 0%; in test [2] (50 mg/kg oral), 33.3%. The responders at 100 mg/kg in test [1] (100 mg/kg oral) and in test [2] (100 mg/kg oral) was 66.7% throughout.
In the case of `CC(C(N)=O)c1ccccc1-c1ccccc1` (stereo not drawn) [Example 56, 2-(Biphenyl-2-yl)propanamide], the results for the responders at 50 mg/kg in test [1] (50 mg/kg oral) and in test [2] (50 mg/kg oral) were 0% and 100%, respectively. Further, the responders at 100 mg/kg was 100% in test [1] (100 mg/kg oral) and 66.7% in test [2] (100 mg/kg oral).
In the case of `CNC(=O)Cc1ccc(F)cc1-c1cc(Cl)cc(Cl)c1` [Example 151], the values for the responders at 100 mg/kg in test [1] (100 mg/kg oral) and in test [2] (100 mg/kg oral) were 66.7% and 0%, respectively.
Taken in the same sequence, the figures for `CC(C(N)=O)c1ccccc1-c1cccc(Cl)c1` (stereo not drawn) [Example 177] were 0% and 33.3%.
As for `NC(=O)Cc1ccccc1-c1ccc(C(F)(F)F)cc1` [Example 51], the responders at 50 mg/kg in test [1] (50 mg/kg oral) is 0%. In addition, the responders at 100 mg/kg in test [1] (100 mg/kg oral) was 100%; in test [2] (100 mg/kg oral), 33.3%.
Consider `NC(=O)Cc1ccccc1-c1cc(C(F)(F)F)ccc1F` [Example 83, 2-[2′-fluoro-5′-(trifluoromethyl)biphenyl-2-yl]acetamide], for which the responders at 50 mg/kg in test [1] (50 mg/kg oral) is 0%; in test [2] (50 mg/kg oral) it was 33.3%. Further, the responders at 100 mg/kg in test [1] (100 mg/kg oral) and in test [2] (100 mg/kg oral) was 66.7% each time.
As for `NC(=O)C1(c2ccccc2-c2ccccc2)CC1` [Example 155], the responders at 100 mg/kg in test [1] (100 mg/kg oral) is 0%; in test [2] (100 mg/kg oral), 66.7%. The responders at 50 mg/kg in test [2] (50 mg/kg oral) is 0%.
Regarding `CNC(=O)Cc1ccccc1-c1ccc(OC(F)(F)F)cc1` [Example 103], the responders at 100 mg/kg in test [1] (100 mg/kg oral) is 100%; in test [2] (100 mg/kg oral), 33.3%.
Taken in the same sequence, the figures for `CNC(=O)Cc1cc(Cl)ccc1-c1ccc(F)cc1` [Example 130] were 100% and 0%.
As for `NC(=O)Cc1cc(Cl)ccc1-c1ccc(Cl)cc1` [Example 109, 2-(4,4′-dichlorobiphenyl-2-yl)acetamide], the responders at 50 mg/kg in test [1] (50 mg/kg oral) is 100%; in test [2] (50 mg/kg oral) it was 66.7%. For the same molecule, the responders at 100 mg/kg in test [1] (100 mg/kg oral) and in test [2] (100 mg/kg oral) was 100% in each case. In addition, the “anticonvulsant action in maximum electroshock seizure (MES) model test” value in test [1] (mice, oral 50 or 100 mg/kg, 1 hour after administration) is reported as “anticonvulsant action was observed”. In addition, the “anticonvulsant action in subcutaneously pentetrazol-injected model (scPTZ) test” value in test [2] (mice, oral 50 or 100 mg/kg) is on record as “anticonvulsant action was observed”.
With `O=C(Cc1ccccc1-c1ccccc1F)NCC1CC1` [Example 173], the responders at 100 mg/kg was 33.3% in test [1] (100 mg/kg oral) and 0% in test [2] (100 mg/kg oral).
With `CNC(=O)C(F)c1ccccc1-c1ccc(F)cc1` (stereo not drawn) [Example 166, 2-fluoro-2-(4′-fluorobiphenyl-2-yl)-N-methylacetamide], the responders at 50 mg/kg in test [1] (50 mg/kg oral) is 66.7%; in test [2] (50 mg/kg oral) it was 33.3%. Moreover, the responders at 100 mg/kg in test [1] (100 mg/kg oral) was 100%; in test [2] (100 mg/kg oral), 66.7%.
Consider `NC(=O)C(O)c1ccccc1-c1cc(F)cc(Cl)c1` (single isomer, unassigned) [Example 218, 2-(3′-Chloro-5′-fluorobiphenyl-2-yl)-2-hydroxyacetamide], for which the “MES (positive number/tested number)” value in test [1] (50 mg/kg oral) was 1/3. Further, the responders at 100 mg/kg in test [1] (100 mg/kg oral) was 100%. Besides, the “scPTZ (positive number/tested number)” value in test [2] (50 mg/kg oral) is 1/3; in test [2] (100 mg/kg oral), 2/3.
For the molecule `CNC(=O)Cc1cc(F)ccc1-c1ccc(Cl)cc1` [Example 132], the responders at 100 mg/kg in test [1] (100 mg/kg oral) was 100%; in test [2] (100 mg/kg oral), 0%.
Taken in the same sequence, the figures for `NC(=O)C1(c2ccccc2-c2cccc(F)c2)CC1` [Example 158] were 0% and 66.7%.
Take `NC(=O)Cc1ccccc1-c1ccc(F)cc1F` [Example 154]: the responders at 50 mg/kg in test [1] (50 mg/kg oral) was 33.3%. In addition, the results for the responders at 100 mg/kg in test [1] (100 mg/kg oral) and in test [2] (100 mg/kg oral) were 100% and 33.3%, respectively.
